Test results: US11497751B2, “Modulators of Rho-associated protein kinase” (Redx Pharma PLC, priority 2018, dated 2022)

target: T1, N-terminal 6His-tagged ROCK2 catalytic domain 11-552 (Homo sapiens, UniProt O75116); test: ROCK2 binding activity: ROCK2 inhibition, ADP-Glo Kinase Assay; format: biochemical; conditions: 1.25 nM ROCK2, 100 μM long S6 peptide, 20 μM ATP; 1 hour pre-incubation; read-out: ADP-Glo kinase activity assay ROCK2 Category
T1 construct: N-terminal 6His-tagged ROCK2 catalytic domain 11-552; 6His (N); purchased Dundee University, UK; host or cells: baculovirus expression system
T1 sequence (O75116 11-552): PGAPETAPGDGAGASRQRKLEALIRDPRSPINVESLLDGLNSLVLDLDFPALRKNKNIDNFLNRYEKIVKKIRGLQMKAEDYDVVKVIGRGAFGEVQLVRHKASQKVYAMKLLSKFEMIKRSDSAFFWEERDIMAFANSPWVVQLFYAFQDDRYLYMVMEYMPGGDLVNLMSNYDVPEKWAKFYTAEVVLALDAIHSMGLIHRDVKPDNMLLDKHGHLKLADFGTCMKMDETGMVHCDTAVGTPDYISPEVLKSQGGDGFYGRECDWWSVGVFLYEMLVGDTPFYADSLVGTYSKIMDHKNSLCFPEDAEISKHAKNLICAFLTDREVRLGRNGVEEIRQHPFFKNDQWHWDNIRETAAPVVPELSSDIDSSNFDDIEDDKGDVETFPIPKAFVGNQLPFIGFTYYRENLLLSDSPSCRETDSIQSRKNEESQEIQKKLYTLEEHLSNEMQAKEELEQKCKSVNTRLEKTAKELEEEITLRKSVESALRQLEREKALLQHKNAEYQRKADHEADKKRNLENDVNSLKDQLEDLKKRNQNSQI
In short: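 1.25 nM baculovirus-expressed ROCK2 pre-incubated 1 h with compound (1% DMSO), then 100 μM long S6 peptide and 20 μM ATP added for 1 h; 50 mM HEPES pH 7.5, 10 mM Mg acetate, 1 mM DTT. ADP-Glo luminescence; IC50 from four-parameter logistic fit.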

COc1cc(-c2nc(Nc3ccc4[nH]ncc4c3Cl)n(C)n2)ccc1OCC(=O)NC1CNC1 [Example 48] and COc1cc(-c2nc(Nc3ccc4[nH]ncc4c3Cl)n(C)n2)ccc1OCC(=O)NC1CCC(O)CC1 (centres unmarked) [Example 212] cannot be ordered by IC50: under 0.3 µM for the first, under 0.3 µM for the second.

COc1cc(-c2nc(Nc3ccc4[nH]ncc4c3Cl)n(C)n2)ccc1C(=O)NC1CNCC1(F)F (centres unmarked) [Example 365] and COc1cc(-c2nc(Nc3ccc4[nH]ncc4c3Cl)n(C)n2)ccc1C(=O)NC1CC1 [Example 195] cannot be ordered by IC50: under 0.3 µM for the first, under 0.3 µM for the second.

CC(C)NC(=O)COc1ccc(-c2nc(Nc3ccc4[nH]ncc4c3)n(C)n2)c(F)c1F [Example 411] and COc1cc(-c2nc(Nc3ccc4[nH]ncc4c3)n(C)n2)ccc1OCC(=O)NC(C)C(F)(F)F (centres unmarked) [Example 235, 2-[4-[5-(1H-indazol-5-ylamino)-1-methyl-1,2,4-triazol-3-yl]-2-methoxy-phenoxy]-N-(2,2,2-trifluoro-1-methyl-ethyl)acetamide] cannot be ordered by IC50: under 0.3 µM for the first, under 0.3 µM for the second.

First: Cn1nc(-c2ccc(CN3CCOCC3)cc2)nc1Nc1ccc2[nH]ncc2c1Cl [Example 105]
Second: CN(C)C(=O)c1ccc(-c2nc(Nc3ccc4[nH]ncc4c3Cl)n(C)n2)cc1 [Example 82]
The IC50 of the first is lower: under 0.3 µM for the first, 0.3 to 3 µM for the second.

COc1cc(-c2nc(Nc3ccc4[nH]ncc4c3Cl)n(C)n2)ccc1OCC(=O)NCC(C)(C)O [Example 207] and COc1cc(-c2nc(Nc3ccc4[nH]ncc4c3Cl)n(C)n2)ccc1OCC(=O)NC(C)C [Example 68] cannot be ordered by IC50: under 0.3 µM for the first, under 0.3 µM for the second.

Compared with COc1cc(-c2nc(Nc3ccc4[nH]ncc4c3C3CC3)n(C)n2)ccc1C(=O)NC1CC1 [Example 383], COc1cc(-c2nc(Nc3ccc4[nH]ncc4c3C3CC3)n(C)n2)ccc1C(=O)NC1CN(C)C1 [Example 275] is higher in IC50: under 0.3 µM for the first, 0.3 to 3 µM for the second.

CC(C)NC(=O)c1ccc(-c2nc(Nc3ccc4[nH]ncc4c3C3CC3)n(C)n2)cc1 [Example 295] and Cn1nc(-c2ccc(C(=O)NCC3CC3)cc2)nc1Nc1ccc2[nH]ncc2c1C1CC1 [Example 283] cannot be ordered by IC50: under 0.3 µM for the first, under 0.3 µM for the second.

Cn1nc(-c2ccc(C(=O)NCC(F)(F)F)cc2)nc1Nc1ccc2[nH]ncc2c1C1CC1 [Example 343, 4-[5-[(4-cyclopropyl-1H-indazol-5-yl)amino]-1-methyl-1,2,4-triazol-3-yl]-N-(2,2,2-trifluoroethyl)benzamide] and CC(O)Cn1nc(-c2ccc(C(=O)NCC(F)(F)F)cc2)nc1Nc1ccc2[nH]ncc2c1C1CC1 (centres unmarked) [Example 444] cannot be ordered by IC50: under 0.3 µM for the first, under 0.3 µM for the second.

CCNC(=O)c1ccc(-c2nc(Nc3ccc4[nH]ncc4c3C3CC3)n(C)n2)cc1C [Example 277] and Cc1cc(-c2nc(Nc3ccc4[nH]ncc4c3C3CC3)n(C)n2)ccc1C(=O)NCC(F)(F)F [Example 276] cannot be ordered by IC50: under 0.3 µM for the first, under 0.3 µM for the second.

First: CC(C)NC(=O)COc1ccc(-c2nnc(Nc3ccc4[nH]ncc4c3)[nH]2)cc1C#N [Example 14]
Second: CC(C)NC(=O)Cn1cc(-c2nnc(Nc3ccc4[nH]ncc4c3)[nH]2)ccc1=O [Example 16]
The IC50 of the first is lower: under 0.3 µM for the first, 0.3 to 3 µM for the second. The first is the more potent here.

C=Cc1c(Nc2nc(-c3ccc(C(=O)NCC)cc3)nn2C)ccc2[nH]ncc12 [Example 426] and CCNC(=O)c1ccc(-c2nc(Nc3ccc4[nH]ncc4c3Cl)n(C)n2)cn1 [Example 370] cannot be ordered by IC50: under 0.3 µM for the first, under 0.3 µM for the second.

CNC(=O)c1cccc(-c2nc(Nc3ccc4[nH]ncc4c3Cl)n(C)n2)c1 [Example 135] and CC(C)NC(=O)c1cccc(-c2nc(Nc3ccc4[nH]ncc4c3Cl)n(C)n2)c1 [Example 270] cannot be ordered by IC50: under 0.3 µM for the first, under 0.3 µM for the second.

First: Cn1nc(-c2ccc(Oc3ccccc3)cc2)nc1Nc1ccc2[nH]ncc2c1Cl [Example 137]
Second: COc1ccc(-c2nc(Nc3ccc4[nH]ncc4c3Cl)n(C)n2)c(F)c1 [Example 104]
The IC50 of the first is higher: 0.3 to 3 µM for the first, under 0.3 µM for the second.

Compared with NCCCOc1ccc(-c2nnc(Nc3ccc4[nH]ncc4c3)[nH]2)cc1 [Example 22], CC(C)C(=O)NCCCOc1ccc(-c2nnc(Nc3ccc4[nH]ncc4c3)[nH]2)cc1 [Example 32] is lower in IC50: 0.3 to 3 µM for the first, under 0.3 µM for the second.

COc1cc(-c2nc(Nc3ccc4[nH]ncc4c3Cl)n(CCN3CCOCC3)n2)ccc1OCC(=O)NC(C)C [Example 434] and COc1cc(-c2nc(Nc3ccc4[nH]ncc4c3Cl)n(C)n2)ccc1OCC(=O)NC(C)C(F)(F)F (centres unmarked) [Example 210] cannot be ordered by IC50: under 0.3 µM for the first, under 0.3 µM for the second.

First: COc1cc(-c2nc(Nc3ccc4[nH]nc(C)c4c3)n(C)n2)ccc1OCC(=O)NC(C)C [Example 233, N-isopropyl-2-[2-methoxy-4-[1-methyl-5-[(3-methyl-1H-indazol-5-yl)amino]-1,2,4-triazol-3-yl]phenoxy]acetamide]
Second: COc1cc(-c2nc(Nc3ccc4[nH]ncc4c3)nn2C)ccc1OCC(=O)NC(C)C [Example 232, 2-[4-[5-(1H-indazol-5-ylamino)-2-methyl-1,2,4-triazol-3-yl]-2-methoxy-phenoxy]-N-isopropyl-acetamide]
The IC50 of the first is lower: under 0.3 µM for the first, 0.3 to 3 µM for the second.

CCNC(=O)c1ccc(-c2nc(Nc3ccc4[nH]ncc4c3Cl)n(C)n2)c(C(F)(F)F)c1 [Example 357] and COc1cc(-c2nc(Nc3ccc4[nH]ncc4c3Cl)n(C)n2)ccc1C(N)=O [Example 203] cannot be ordered by IC50: under 0.3 µM for the first, under 0.3 µM for the second.

O=C(COc1ccc(-c2nnc(Nc3ccc4[nH]ncc4c3)[nH]2)cc1)NC1CCC1 [Example 161] and O=C(COc1ccc(-c2nnc(Nc3ccc4[nH]ncc4c3)[nH]2)cc1)NC1CCNC1 (centres unmarked) [Example 156] cannot be ordered by IC50: under 0.3 µM for the first, under 0.3 µM for the second.

First: CC(C)NC(=O)NCc1ccc(-c2nnc(Nc3ccc4[nH]ncc4c3)[nH]2)cc1 [Example 41]
Second: NC1(COc2ccc(-c3nnc(Nc4ccc5[nH]ncc5c4)[nH]3)cc2)COC1 [Example 228, N-[5-[4-[(3-aminooxetan-3-yl)methoxy]phenyl]-4H-1,2,4-triazol-3-yl]-1H-indazol-5-amine]
The IC50 of the first is higher: 3 to 10 µM for the first, 0.3 to 3 µM for the second. The second is the more potent here.

Compared with CN1CCC(NC(=O)COc2ccc(-c3nnc(Nc4ccc5[nH]ncc5c4)[nH]3)cc2)C1 (centres unmarked) [Example 163], c1ccc(NCCOc2ccc(-c3nnc(Nc4ccc5[nH]ncc5c4)[nH]3)cc2)nc1 [Example 222] is lower in IC50: 0.3 to 3 µM for the first, under 0.3 µM for the second.

Compared with Cn1nc(C2=CCC(N)CC2)nc1Nc1ccc2[nH]ncc2c1Cl (centres unmarked) [Example 84], Cn1nc(C2=CCCNC2)nc1Nc1ccc2[nH]ncc2c1Cl [Example 81] is lower in IC50: over 10 µM for the first, 3 to 10 µM for the second. The second is the more potent here.

CNC(=O)Nc1ccc(-c2nc(Nc3ccc4[nH]ncc4c3Cl)n(C)n2)cc1OC [Example 71] and COc1cc(-c2nc(Nc3ccc4[nH]ncc4c3Cl)n(C)n2)ccc1OCC(=O)NCC1(O)CC1 [Example 209] cannot be ordered by IC50: under 0.3 µM for the first, under 0.3 µM for the second.

CCn1nc(-c2ccc(C(=O)NCC(F)(F)F)c(OC)c2)nc1Nc1ccc2[nH]ncc2c1C [Example 457] and COc1cc(-c2nc(Nc3ccc4[nH]ncc4c3C)n(C)n2)ccc1C(=O)NC(C)(C)C [Example 181] cannot be ordered by IC50: under 0.3 µM for the first, under 0.3 µM for the second.

Cn1nc(-c2ccc(C(N)C(F)(F)F)cc2)nc1Nc1ccc2[nH]ncc2c1C1CC1 (centres unmarked) [Example 384] and CCNC(c1ccc(-c2nc(Nc3ccc4[nH]ncc4c3C3CC3)n(C)n2)cc1)C(F)F (centres unmarked) [Example 388] fall in the same range of IC50: 0.3 to 3 µM for the first, 0.3 to 3 µM for the second.

COc1cc(-c2nc(Nc3ccc4[nH]ncc4c3Cl)n(C)n2)ccc1OCC(=O)NC1(CO)CCCC1 [Example 50] and COc1cc(-c2nc(Nc3ccc4[nH]ncc4c3)n(C)n2)ccc1COC(=O)NC1CCNC1 (centres unmarked) [Example 231, [4-[5-(1H-indazol-5-ylamino)-1-methyl-1,2,4-triazol-3-yl]-2-methoxy-phenyl]methyl N-pyrrolidin-3-ylcarbamate] cannot be ordered by IC50: under 0.3 µM for the first, under 0.3 µM for the second.
